Tested on: 192522-019-R-J2-PDC complex tumor spheroid viability
Test: Anticancer human tumor 192522-019-R-J2-PDC patient-derived colon adenocarcinoma cell line growth inhibition [POLQ]
Conditions: for IC50: curve of first compound; for viability, T/C: stronger effect = lower value
Procedure, shortened: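 PDC + HUVEC + MSC complex spheroids; POLQ inhibitors ± partner drugs; top conc. at/near clinical Cmax, else 10 microM (SN-38 1 microM), half-log dilutions; 37 degrees C, 5% CO2.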

[1] = second compound 0.0316 µM, first compound 0.0316 µM
[2] = second compound 0.0316 µM, first compound 0.1 µM
[3] = second compound 0.0316 µM, first compound 0.316 µM
[4] = second compound 0.0316 µM, first compound 1 µM
[5] = second compound 0.0316 µM, first compound 3.16 µM
[6] = second compound 0.0316 µM, first compound 10 µM
[7] = second compound 0.1 µM, first compound 0.0316 µM
[8] = second compound 0.1 µM, first compound 0.1 µM
[9] = second compound 0.1 µM, first compound 0.316 µM
[10] = second compound 0.1 µM, first compound 1 µM
[11] = second compound 0.1 µM, first compound 3.16 µM
[12] = second compound 0.1 µM, first compound 10 µM
[13] = second compound 0.316 µM, first compound 0.0316 µM
[14] = second compound 0.316 µM, first compound 0.1 µM
[15] = second compound 0.316 µM, first compound 0.316 µM
[16] = second compound 0.316 µM, first compound 1 µM
[17] = second compound 0.316 µM, first compound 3.16 µM
[18] = second compound 0.316 µM, first compound 10 µM
[19] = second compound 1 µM, first compound 0.0316 µM
[20] = second compound 1 µM, first compound 0.1 µM
[21] = second compound 1 µM, first compound 0.316 µM
[22] = second compound 1 µM, first compound 1 µM
[23] = second compound 1 µM, first compound 3.16 µM
[24] = second compound 1 µM, first compound 10 µM
[25] = second compound 3.16 µM, first compound 0.0316 µM
[26] = second compound 3.16 µM, first compound 0.1 µM
[27] = second compound 3.16 µM, first compound 0.316 µM
[28] = second compound 3.16 µM, first compound 1 µM
[29] = second compound 3.16 µM, first compound 3.16 µM
[30] = second compound 3.16 µM, first compound 10 µM
[31] = second compound 10 µM, first compound 0.0316 µM
[32] = second compound 10 µM, first compound 0.1 µM
[33] = second compound 10 µM, first compound 0.316 µM
[34] = second compound 10 µM, first compound 1 µM
[35] = second compound 10 µM, first compound 3.16 µM
[36] = second compound 10 µM, first compound 10 µM
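Further: spheroids exposed to drugs for seven days before reading.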
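Wherever viability, T/C is given: 100% = DMSO vehicle control viability in luminescence.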

Compound: COc1cc(C2c3cc4c(cc3C(OC3OC5COC(C)OC5C(O)C3O)C3COC(=O)C23)OCO4)cc(OC)c1O (stereo unspecified) + Nc1ccc(C#CCN(C(=O)Cc2ncc(C(F)(F)F)cc2C(F)(F)F)c2ccc(F)cc2)nn1
- IC50 (second compound 0.0316 µM): > 10 µM
- IC50 (second compound 0.1 µM): > 10 µM
- IC50 (second compound 0.316 µM): > 10 µM
- IC50 (second compound 1 µM): > 10 µM
- IC50 (second compound 3.16 µM): > 10 µM
- IC50 (second compound 10 µM): > 10 µM
- viability, T/C [1]: 105%
- viability, T/C [2]: 98.2%
- viability, T/C [3]: 86.9%
- viability, T/C [4]: 83.2%
- viability, T/C [5]: 68.9%
- viability, T/C [6]: 77.8%
- viability, T/C [7]: 110%
- viability, T/C [8]: 92.2%
- viability, T/C [9]: 97.5%
- viability, T/C [10]: 93.4%
- viability, T/C [11]: 65.4%
- viability, T/C [12]: 80.4%
- viability, T/C [13]: 106%
- viability, T/C [14]: 100%
- viability, T/C [15]: 96.4%
- viability, T/C [16]: 87%
- viability, T/C [17]: 67%
- viability, T/C [18]: 80%
- viability, T/C [19]: 100%
- viability, T/C [20]: 91.9%
- viability, T/C [21]: 98.2%
- viability, T/C [22]: 85.1%
- viability, T/C [23]: 73.9%
- viability, T/C [24]: 75%
- viability, T/C [25]: 109%
- viability, T/C [26]: 96.4%
- viability, T/C [27]: 95.9%
- viability, T/C [28]: 85.2%
- viability, T/C [29]: 72.7%
- viability, T/C [30]: 76.1%
- viability, T/C [31]: 104%
- viability, T/C [32]: 101%
- viability, T/C [33]: 96.9%
- viability, T/C [34]: 78.6%
- viability, T/C [35]: 79.7%
- viability, T/C [36]: 72.2%

Compound: Nc1ccn(C2OC(CO)C(O)C2(F)F)c(=O)n1 (stereo unspecified) + Nc1ccc(C#CCN(C(=O)Cc2ncc(C(F)(F)F)cc2C(F)(F)F)c2ccc(F)cc2)nn1
- IC50 (second compound 0.0316 µM): > 10 µM
- IC50 (second compound 0.1 µM): > 10 µM
- IC50 (second compound 0.316 µM): > 10 µM
- IC50 (second compound 1 µM): > 10 µM
- IC50 (second compound 3.16 µM): > 10 µM
- IC50 (second compound 10 µM): > 10 µM
- viability, T/C [1]: 100%
- viability, T/C [2]: 96.1%
- viability, T/C [3]: 80.6%
- viability, T/C [4]: 80.3%
- viability, T/C [5]: 76.3%
- viability, T/C [6]: 69.5%
- viability, T/C [7]: 102%
- viability, T/C [8]: 94%
- viability, T/C [9]: 81%
- viability, T/C [10]: 76.8%
- viability, T/C [11]: 80.9%
- viability, T/C [12]: 66.8%
- viability, T/C [13]: 112%
- viability, T/C [14]: 90.9%
- viability, T/C [15]: 82.2%
- viability, T/C [16]: 80.4%
- viability, T/C [17]: 83.5%
- viability, T/C [18]: 69.7%
- viability, T/C [19]: 105%
- viability, T/C [20]: 94.7%
- viability, T/C [21]: 88.4%
- viability, T/C [22]: 82.9%
- viability, T/C [23]: 82.4%
- viability, T/C [24]: 69.8%
- viability, T/C [25]: 104%
- viability, T/C [26]: 91.4%
- viability, T/C [27]: 85.1%
- viability, T/C [28]: 82.3%
- viability, T/C [29]: 83.8%
- viability, T/C [30]: 71.4%
- viability, T/C [31]: 109%
- viability, T/C [32]: 98.5%
- viability, T/C [33]: 95.3%
- viability, T/C [34]: 84.6%
- viability, T/C [35]: 84.4%
- viability, T/C [36]: 72.2%

Compound: O=C(c1cc(Cc2n[nH]c(=O)c3ccccc23)ccc1F)N1CCN(C(=O)C2CC2)CC1 + Nc1ccc(C#CCN(C(=O)Cc2ncc(C(F)(F)F)cc2C(F)(F)F)c2ccc(F)cc2)nn1
- IC50 (second compound 0.0316 µM): > 10 µM
- IC50 (second compound 0.1 µM): > 10 µM
- IC50 (second compound 0.316 µM): > 10 µM
- IC50 (second compound 1 µM): > 10 µM
- IC50 (second compound 3.16 µM): > 10 µM
- IC50 (second compound 10 µM): > 10 µM
- viability, T/C [1]: 105%
- viability, T/C [2]: 116%
- viability, T/C [3]: 106%
- viability, T/C [4]: 105%
- viability, T/C [5]: 111%
- viability, T/C [6]: 104%
- viability, T/C [7]: 108%
- viability, T/C [8]: 104%
- viability, T/C [9]: 102%
- viability, T/C [10]: 102%
- viability, T/C [11]: 110%
- viability, T/C [12]: 105%
- viability, T/C [13]: 117%
- viability, T/C [14]: 105%
- viability, T/C [15]: 101%
- viability, T/C [16]: 112%
- viability, T/C [17]: 111%
- viability, T/C [18]: 95.6%
- viability, T/C [19]: 110%
- viability, T/C [20]: 102%
- viability, T/C [21]: 97.3%
- viability, T/C [22]: 104%
- viability, T/C [23]: 114%
- viability, T/C [24]: 106%
- viability, T/C [25]: 116%
- viability, T/C [26]: 104%
- viability, T/C [27]: 103%
- viability, T/C [28]: 105%
- viability, T/C [29]: 106%
- viability, T/C [30]: 113%
- viability, T/C [31]: 107%
- viability, T/C [32]: 111%
- viability, T/C [33]: 110%
- viability, T/C [34]: 103%
- viability, T/C [35]: 110%
- viability, T/C [36]: 110%
